# Results taken from US7781565B2 (priority 2006, dated 2010).
# Entries after “also recorded” stand apart in the source; their conditions may differ.
# Tested on: NCI-60 cell lines
# Assay type: cell-based, human
substance,measurement,value
SMRGVLS,Cell Line the peptide is associated with (peptide recovered from phage library selection on this NCI-60 cell line),BT-549 Breast
SRASDVT,Cell Line (NCI-60 cell line the peptide is associated with),SW620-Colon
AGSGFPF,Cell Line (NCI-60 cell line the peptide is associated with),HT-29 Colon
GSSRQFV,Cell Line with which the peptide (and its tripeptide motif) is associated,A549-Lung
LSVLRVL,Cell Line (NCI-60 cell line the peptide and its motif are associated with),IGROV1 Ovarian
ARLSLEL,Cell Line the peptide is associated with (peptide recovered from phage library selection on this NCI-60 cell line),TK-10 Renal
GCGGVRD,Cell Line (NCI-60 cell line the peptide is associated with),HT-29 Colon
LLVSLSS,Cell Line the peptide is associated with (peptide recovered from phage library selection on this NCI-60 cell line),RXF393 Renal
EPDGVRS,Cell Line with which the peptide (and its tripeptide motif) is associated,CCRF-CEM Leukemia
NLRVGAE,Cell Line (NCI-60 cell line the peptide and its motif are associated with),OVCAR-4 Ovarian
PFHRRAV,Cell Line the peptide is associated with (peptide recovered from phage library selection on this NCI-60 cell line),T-47D Breast
LGGRLSL,Cell Line the peptide is associated with (peptide recovered from phage library selection on this NCI-60 cell line),MDA-MB-231 Breast
NYMGPSA,Cell Line with which the peptide (and its tripeptide motif) is associated,A549-Lung
GLVGGSS,Cell Line with which the peptide (and its tripeptide motif) is associated,H460-Lung
AGRPRAT,Cell Line (NCI-60 cell line the peptide is associated with),HCT-116 Colon
WSISGSV,Cell Line the peptide is associated with (peptide recovered from phage library selection on this NCI-60 cell line),MDA-MB-231 Breast
KGRVSAG,Cell Line (NCI-60 cell line the peptide is associated with),SNB-19 CNS; also recorded: SF-539 CNS
MRGSGRN,Cell Line (NCI-60 cell line the peptide is associated with),KM-12C Colon
REVPGLR,Cell Line (NCI-60 cell line the peptide is associated with),SNB-19 CNS; also recorded: SF-539 CNS
VSSTARG,Cell Line (NCI-60 cell line the peptide is associated with),MALME-3M Melanoma
LSTPGRV,Cell Line the peptide is associated with (peptide recovered from phage library selection on this NCI-60 cell line),UO31 Renal
YWFIGLG,Cell Line with which the peptide (and its tripeptide motif) is associated,EKVX-Lung
TLGSVRV,Cell Line (NCI-60 cell line the peptide and its motif are associated with),SK-MEL-5 Melanoma
ERGVFVY,Cell Line the peptide is associated with (peptide recovered from phage library selection on this NCI-60 cell line),T-47D Breast
SHCGPSN,Cell Line (NCI-60 cell line the peptide is associated with),SF-295 CNS
PRGSLFA,Cell Line the peptide is associated with (peptide recovered from phage library selection on this NCI-60 cell line),UO31 Renal
SGVSISC,Cell Line (NCI-60 cell line the peptide and its motif are associated with),IGROV1 Ovarian
RLLSEGY,Cell Line (NCI-60 cell line the peptide is associated with),SNB-75 CNS
DFTLGSS,Cell Line the peptide is associated with (peptide recovered from phage library selection on this NCI-60 cell line),MDA-MB-231 Breast
SARLSHV,Cell Line (NCI-60 cell line the peptide and its motif are associated with),UACC 257 Melanoma
RPKLRSV,Cell Line (NCI-60 cell line the peptide is associated with),MALME-3M Melanoma
FAGAGVR,Cell Line (NCI-60 cell line the peptide and its motif are associated with),SK-OV-3-3 Ovarian
REEFAGR,Cell Line with which the peptide (and its tripeptide motif) is associated,SR Leukemia
TWSTGGR,Cell Line (NCI-60 cell line the peptide is associated with),LOX-IMVI Melanoma
IGGREIT,Cell Line with which the peptide (and its tripeptide motif) is associated,H23-Lung
FFGRVGI,Cell Line with which the peptide (and its tripeptide motif) is associated,Molt-4-Leukemia
KVVGRLG,Cell Line (NCI-60 cell line the peptide is associated with),HCT-116 Colon
GALRVPW,Cell Line (NCI-60 cell line the peptide is associated with),HCT-15 Colon
TLVLGGS,Cell Line with which the peptide (and its tripeptide motif) is associated,Hop-92-Lung
DTLASLR,Cell Line (NCI-60 cell line the peptide is associated with),HT-29 Colon
GLRRDNG,Cell Line (NCI-60 cell line the peptide and its motif are associated with),OVCAR-3 Ovarian
RYSTLLR,Cell Line with which the peptide (and its tripeptide motif) is associated,K-562-Leukemia
DGPSGCS,Cell Line (NCI-60 cell line the peptide is associated with),SNB-75 CNS
AAGGLLV,Cell Line (NCI-60 cell line the peptide is associated with),HCC-2998-Colon
RGARVSA,Cell Line with which the peptide (and its tripeptide motif) is associated,Molt-4-Leukemia
SNFYGSS,Cell Line (NCI-60 cell line the peptide and its motif are associated with),M14 Melanoma
RGVVSGV,Cell Line with which the peptide (and its tripeptide motif) is associated,Hop-92-Lung
DGGRRTD,Cell Line (NCI-60 cell line the peptide is associated with),HCT-15 Colon
DWVCRAS,Cell Line (NCI-60 cell line the peptide is associated with),HT-29 Colon
NGRGSGW,Cell Line with which the peptide (and its tripeptide motif) is associated,HL-60-Leukemia
AVSLVVL,Cell Line (NCI-60 cell line the peptide and its motif are associated with),OVCAR-8 Ovarian
AAKTLLS,Cell Line (NCI-60 cell line the peptide is associated with),SW620-Colon
GFYWLRS,Cell Line with which the peptide (and its tripeptide motif) is associated,Molt-4-Leukemia
GRVDPVD,Cell Line the peptide is associated with (peptide recovered from phage library selection on this NCI-60 cell line),T-47D Breast
FISAGGW,Cell Line the peptide is associated with (peptide recovered from phage library selection on this NCI-60 cell line),MDA-MB-231 Breast
QLPGLLR,Cell Line (NCI-60 cell line the peptide is associated with),SNB-75 CNS
AAVWWAA,Cell Line (NCI-60 cell line the peptide and its motif are associated with),DU-145 Prostate
WSGGLNV,Cell Line with which the peptide (and its tripeptide motif) is associated,H322-Lung
LYVDASL,Cell Line the peptide is associated with (peptide recovered from phage library selection on this NCI-60 cell line),MDA-MB-435-Breast
IGVRGAV,Cell Line (NCI-60 cell line the peptide is associated with),MALME-3M Melanoma
TSRGLRL,Cell Line (NCI-60 cell line the peptide and its motif are associated with),UACC 257 Melanoma
TQYYGSS,Cell Line (NCI-60 cell line the peptide is associated with),SNB-19 CNS; also recorded: SF-539 CNS
WLLSARL,Cell Line (NCI-60 cell line the peptide is associated with),HCC-2998-Colon
LVSSGSK,Cell Line with which the peptide (and its tripeptide motif) is associated,HL-60-Leukemia
GPGGSKR,Cell Line the peptide is associated with (peptide recovered from phage library selection on this NCI-60 cell line),SN12C Renal
RRGSSRN,Cell Line with which the peptide (and its tripeptide motif) is associated,SR Leukemia
